SMILES strings stand for the structures.

The conditions of the data set: water at 20° C.
In turn, `C=C(C)C(=O)OCCCC` [butyl methacrylate] registered a solubility in water of 0.03 % by weight.
As for `C=Cc1ccccc1` [styrene], the figure is 0.03 % by weight; as for `C=C(C)C(=O)OC` [methyl methacrylate], 1.35 % by weight.

These data come from patent US20050008851A1, “Biosensor” (FUJI PHOTO FILM CO., LTD., priority 2003, published 2005).
